Data from patent US7897582B2, “Oligonucleotide compositions and methods for the modulation of the expression of B7 protein” (Isis Pharmaceuticals, Inc., priority 2003, dated 2011).
Strand notation (5' to 3'): a small letter for the sugar, then the base; units joined by * are phosphorothioate-linked, units joined directly phosphodiester-linked; [ ] holds rarer units or linkages, { } end groups; capitals alone tell only the bases. e = 2'-O-(2-methoxyethyl) (MOE); [5mC] = 5-methylcytosine; d = 2'-deoxy (DNA)

Experiments:
[1] = tested on: DBA/1LacJ mice with collagen-induced arthritis; assay: Collagen-induced arthritis (CIA) murine model; type: in vivo, mouse; conditions: CIA in DBA/1LacJ mice; for % Incidence: 10 mg/kg intraperitoneally daily from day -3, control 70%; for Peak day (day from onset of maximum swelling for each joint measure) / Severity (total clinical score divided by the total number of mice in the group): 10 mg/kg intraperitoneally daily; for Peak day (day from onset of maximum swelling for each joint measure): control 6.7 ± 2.9; for Severity (total clinical score divided by the total number of mice in the group): limbs graded 0-4, control 3.2 ± 1.1
Experimental: Collagen-induced arthritis (CIA) was used as a murine model for arthritis (Mussener, A., et al., Clin. Exp. Immunol., 1997, 107, 485-493). Female DBA/1LacJ mice (Jackson Laboratories, Bar Harbor, Me.) between the ages of 6 and 8 weeks were used to assess the activity of B7-1 antisense oligonucleotides.
On day 0, the mice were immunized at the base of the tail with 100 μg of bovine type II collagen which is emulsified in Complete Freund's Adjuvant (CFA). On day 7, a second booster dose of collagen was administered by the same route. On day 14, the mice were injected subcutaneously with 100 μg of LPS. Oligonucleotide was administered intraperitoneally daily (10 mg/kg bolus) starting on day −3 (three days before day 0) and continuing for the duration of the study. Oligonucleotide 17456 (SEQ ID NO. 173) is a fully phosphorothioated analog of 18122.
Weights were recorded weekly. Mice were inspected daily for the onset of CIA. Paw widths are rear ankle widths of affected and unaffected joints were measured three times a week using a constant tension caliper. Limbs were clinically evaluated and graded on a scale from 0-4 (with 4 being the highest).

murine B7-2 (mB7-2) [2] = assay: Murine B7-2 cell surface expression in transfected COS-7 cells by flow cytometry; type: cell-based, mouse; conditions: for % B7-2 EXPRESSION: mouse B7-2 cell surface expression
Excerpt: (§1) Oligonucleotides (see Table 4) capable of inhibiting expression of murine B7-2 transiently expressed in COS-7 cells were identified in the following manner. A series of phosphorothioate oligonucleotides complementary to murine B7-2 (mB7-2) cDNA were screened for their ability to reduce mB7-2 levels (measured by flow cytometry as in Example 2, except that a conjugated anti-mB7-2 antibody (i.e., anti-mCD86-PE, PharMingen, San Diego, Calif.) in COS-7 cells transfected with an mB7-2 cDNA clone. Anti-mB7-2 antibody may also be obtained from the hybridoma deposited at the ATCC under accession No. HB-253. Oligonucleotides (see Table 2) capable of modulating murine B7-1 expression are isolated in like fashion, except that a conjugated anti-mB7-1 antibody is used in conjunction with COS-7 cells transfected with an mB7-1 cDNA clone.
(§2) B7 antisense oligonucleotides were tested for their effect on cell surface expression of both B7-1 and B7-2. Cell surface expression was measured as described in Example 1. Experiments were done for both human B7 and mouse B7.

murine B7-1 = assay: Murine B7-1 cell surface expression in transfected COS-7 cells by flow cytometry; type: cell-based; conditions: mouse B7-1 cell surface expression, basal = 100%
Excerpt: as §1, §2

Mouse B7-2 mRNA = Mouse B7-2 mRNA expression, screened as in Example 4; type: cell-based; parameters: % mRNA INHIBITION: concentration or dose not given beside the values; conditions: for % mRNA INHIBITION: screened as in Example 4; for % mRNA EXPRESSION: screened as in Example 4, basal = 100.0%
Experimental: For ribonuclease protection assays, cells were harvested 18 hours after completion of oligonucleotide treatment using a Totally RNA™ kit (Ambion, Austin, Tex.). The probes for the assay were generated from plasmids pcB7-2 (linearized by digestion with Bgl II) and pTRI-b-actin (Ambion Inc., Austin, Tex.). In vitro transcription of the linearized plasmid from the SP6 promoter was performed in the presence of α-^32P-UTP (800 Ci/mmole) yielding an antisense RNA complementary to the 3′ end of B7-2 (position 1044-1391). The probe was gel-purified after treatment with DNase I to remove DNA template. Ribonuclease protection assays were carried out using an RPA II™ kit (Ambion) according to the manufacturer's directions. Total RNA (5 μg) was hybridized overnight, at 42° C., with 10^5 cpm of the B7-2 probe or a control beta-actin probe. The hybridization reaction was then treated, at 37° C. for 30 minutes, with 0.4 units of RNase A and 2 units of RNase T1. Protected RNA was precipitated, resuspended in 10 μL of gel loading buffer and electrophoresed on a 6% acrylamide gel with 50% w/v urea at 20 W. The gel was then exposed and the lanes quantitated using a PhosphorImager (Molecular Dynamics, Sunnyvale, Calif.) essentially according to the manufacturer's instructions.
Oligonucleotides were screened as described in Example 4.

Mouse B7-1 mRNA = Mouse B7-1 mRNA expression, screened as in Example 4; type: cell-based; parameters: % mRNA INHIBITION: concentration or dose not given beside the values; conditions: Table 10
murine B7-2 (mB7-2) [3] = assay: mB7-2 cell surface expression in LPS-induced IC-21 cells by flow cytometry; type: cell-based, mouse; conditions: FIG. 9; for levels of induced mB7-2 expression: 3 μM; for reduction in the level of induced mB7-2 expression: 10 μM
Experimental: In order to further evaluate the murine B7-2 antisense oligonucleotides, the IC-21 cell line was used. IC-21 monocyte/macrophage cell line expresses both B7-1 and murine B7-2 (mB7-2) constitutively. A 2-fold induction of expression can be achieved by incubating the cells in the presence of lipopolysaccharide (LPS; GIBCO-BRL, Gaithersburg, Md.) (Hathcock et al., Science, 1993, 262, 905).
IC-21 cells (ATCC; accession No. TIB 186) were seeded at 80% confluency in 12-well plates in DMEM media with 10% FCS. The cells were allowed to adhere to the plate overnight. The following day, the medium was removed and the cells were washed with PBS. Then 500 μL of OptiMEM™ (GIBCO-BRL, Gaithersburg, Md.) supplemented with 15 μg/mL of Lipofectin™ (GIBCO-BRL, Gaithersburg, Md.) was added to each well. Oligonucleotides were then added directly to the medium at the indicated concentrations. After incubation for 4 hours, the cells were washed with PBS and incubated overnight in culture medium supplemented with 15 μg/mL of LPS. The following day, cells were harvested by scraping, then analyzed for cell surface expression by flow cytometry.

[4] = tested on: BALB/c mice with heart allograft; assay: Murine heart allograft rejection model; type: in vivo, mouse
Experimental: A murine model for evaluating compounds for their ability to inhibit heart allograft rejection has been previously described (Stepkowski et al., J. Immunol., 1994, 153, 5336). This model was used to evaluate the immunosuppressive capacity of antisense oligonucleotides to B7 proteins alone or in combination with antisense oligonucleotides to intercellular adhesion molecule-1 (ICAM-1).
Heart allograft rejection studies and oligonucleotide treatments of BALB/c mice were performed essentially as previously described (Stepkowski et al., J. Immunol., 1994, 153, 5336). Antisense oligonucleotides used included ISIS 11696, ISIS 3082 (targeted to ICAM-1) and ISIS 1082 (a control oligonucleotide targeted to the herpes virus UL-13 gene sequence). Dosages used were 1, 2, 2.5, 5 or 10 mg/kg of individual oligonucleotide (as indicated below); when combinations of oligonucleotides were administered, each oligonucleotide was given at a dosage of 1, 5 or 10 mg/kg (total oligonucleotide dosages of 2, 10 and 20 mg/kg, respectively). The survival times of the transplanted hearts and their hosts were monitored and recorded.

11696 (antisense dG*dG*dA*dT*dT*dG*dC*dC*dA*dA*dG*dC*dC*dC*dA*dT*dG*dG*dT*dG) [compound 11696]
% Incidence [1]: 37.5% | Peak day (day from onset of maximum swelling for each joint measure) [1]: 11.6 ± 4.5 days | Severity (total clinical score divided by the total number of mice in the group) [1]: 3.4 ± 1.8

18089 (antisense eG*eT*e[5mC]*eA*eA*dA*dG*d[5mC]*dT*d[5mC]*dG*dT*dG*d[5mC]*dG*eG*e[5mC]*e[5mC]*e[5mC]*eA) [compound 18089]
% B7-2 EXPRESSION (murine B7-2 (mB7-2) [2]): 36% | % B7-1 EXPRESSION (murine B7-1): 85% | % mRNA INHIBITION (Mouse B7-2 mRNA): 79.1% | % mRNA EXPRESSION (Mouse B7-2 mRNA): 20.9% | % Incidence [1]: 44.4% | Peak day (day from onset of maximum swelling for each joint measure) [1]: 6.8 ± 2.2 days | Severity (total clinical score divided by the total number of mice in the group) [1]: 2.3 ± 1.3

18097 (antisense eT*eG*e[5mC]*e[5mC]*eA*dA*dG*d[5mC]*d[5mC]*d[5mC]*dA*dT*dG*dG*dT*eG*e[5mC]*eA*eT*e[5mC]) [compound 18097]
% B7-2 EXPRESSION (murine B7-2 (mB7-2) [2]): 28% | % B7-1 EXPRESSION (murine B7-1): 87% | % mRNA INHIBITION (Mouse B7-2 mRNA): 75.5% | % mRNA EXPRESSION (Mouse B7-2 mRNA): 24.5%

18110 (antisense eA*eT*eG*eA*eG*dG*dA*dG*dA*dG*dT*dT*dG*dT*dA*eA*e[5mC]*eG*eG*e[5mC]) [compound 18110]
% B7-2 EXPRESSION (murine B7-2 (mB7-2) [2]): 93% | % B7-1 EXPRESSION (murine B7-1): 31% | % mRNA EXPRESSION (Mouse B7-1 mRNA): 21.0% | % mRNA INHIBITION (Mouse B7-1 mRNA): 79.0% | % Incidence [1]: 55.6% | Peak day (day from onset of maximum swelling for each joint measure) [1]: 2.0 ± 0.8 days | Severity (total clinical score divided by the total number of mice in the group) [1]: 2.0 ± 1.3

18113 (antisense eG*eT*eG*eA*eA*dG*dT*d[5mC]*d[5mC]*dT*d[5mC]*dT*dG*dA*d[5mC]*eA*e[5mC]*eG*eT*eG) [compound 18113]
% B7-2 EXPRESSION (murine B7-2 (mB7-2) [2]): 91% | % B7-1 EXPRESSION (murine B7-1): 25% | % mRNA EXPRESSION (Mouse B7-1 mRNA): 24.6% | % mRNA INHIBITION (Mouse B7-1 mRNA): 75.4%

18119 (antisense eG*eT*eT*eA*eA*d[5mC]*dT*d[5mC]*dT*dA*dT*d[5mC]*dT*dT*dG*eT*eG*eT*e[5mC]*eA) [compound 18119]
% B7-2 EXPRESSION (murine B7-2 (mB7-2) [2]): 98% | % B7-1 EXPRESSION (murine B7-1): 27% | % mRNA EXPRESSION (Mouse B7-1 mRNA): 24.0% | % mRNA INHIBITION (Mouse B7-1 mRNA): 76.0%

18123 (antisense eA*eA*e[5mC]*eG*eG*d[5mC]*dA*dA*dG*dG*d[5mC]*dA*dG*d[5mC]*dA*eA*eT*eA*e[5mC]*e[5mC]) [compound 18123]
% mRNA EXPRESSION (Mouse B7-1 mRNA): 42.0% | % mRNA INHIBITION (Mouse B7-1 mRNA): 58.0%

CTA-AGT-AGT-GCT-AGC-CGG-GA (antisense CTAAGTAGTGCTAGCCGGGA; listed as DNA, chemistry not given here) [ISIS 11866, scrambled # 11696, reference compound]
inhibition of murine B7-2 cell surface expression (murine B7-2 (mB7-2) [2]; highest concentration tested (1000 nM)): less than 20% | levels of induced mB7-2 expression (murine B7-2 (mB7-2) [3]): little effect | reduction in the level of induced mB7-2 expression (murine B7-2 (mB7-2) [3]): 40%

GGA-TTG-CCA-AGC-CCA-TGG-TG (GGATTGCCAAGCCCATGGTG; chemistry not given here) [ISIS 11696]
IC50 (murine B7-2 (mB7-2) [2]; COS-7 cells, FIG. 8): 200 to 300 nM | levels of induced mB7-2 expression (murine B7-2 (mB7-2) [3]): greatly reduced | reduction in the level of induced mB7-2 expression (murine B7-2 (mB7-2) [3]): inhibited mB7-2 expression completely | mean survival time ([4]; 2 mg/kg/day for 7 days): 9.3 ± 0.6 days | mean survival time ([4]; 10 mg/kg/day for 7 days): 9.3 ± 1.3 days

ISIS 1082: control oligonucleotide targeted to the herpes virus UL-13 gene sequence; SEQ ID NO: 102 (125) (antisense GCCGAGGTCCATGTCGTACGC; listed as DNA, chemistry not given here)
mean survival time ([4]; 5 mg/kg/day for 7 days): 7.1 ± 0.7 days | mean survival time ([4]; 10 mg/kg/day for 7 days): 7.0 ± 0.8 days

ISIS 3082: ICAM-1 oligonucleotide, previously described (Stepkowski et al.); SEQ ID NO: 101 (antisense TGCATCCCCCAGGCCACCAT; listed as DNA, chemistry not given here)
mean survival time ([4]; 1 mg/kg/day for 7 days): 11.0 ± 0.0 days | mean survival time ([4]; 2.5 mg/kg/day for 7 days): 12.0 ± 2.7 days | mean survival time ([4]; 5 mg/kg/day for 7 days): 14.1 ± 2.7 days | mean survival time ([4]; 10 mg/kg/day for 7 days): 15.3 ± 5.8 days
